In US11969428B2, “Methods and pharmaceutical compositions for treating lymphoid malignancy” (priority 2011, dated 2024):

Experiments:
[1] = test system: primary human T-ALL tumor cells; test: Akt phosphorylation in primary T-ALL samples (immunoblot); format: cell-based; conditions: 6 hours of treatment
Description: (§1) Cell lysates (from cell lines or thymocytes) were prepared on ice in M-PER Mammalian Protein Extraction reagent (Pierce) containing a cocktail of protease and phosphatase inhibitors (Swat et al., 2006). Equal amounts of total protein from lysates were subjected to SDS-PAGE, transferred to PVDF membrane (Immobilon-P, Millipore), and membranes probed by overnight incubation with appropriate primary antibodies. Bound antibodies were visualized with HRP-conjugated secondary antibodies and ECL chemistry (SuperPico West, Pierce).

PI3Kα = PI3Kα isoform selective cell-based assay (PDGF-stimulated SW3T3 cells, P-Akt); conditions: compared to pan-PI3K/mTOR inhibitor BEZ235
Description: For the analysis of p110α-mediated signaling, SW3T3 cells were placed in serum free media (3 hours) and incubated with either CAL-130 or the Pan-PI3K/mTor inhibitor BEZ235 (Selleck Chemicals) for 1 hour prior to stimulation with PDGF (10 ng/ml; Cell Signaling) for 10 minutes at 37° C. After washing once in cold phosphate-buffered saline (PBS), the cell pellet was resuspended in lysis buffer (50 mM HEPES [N-2-hydroxyethylpiperazine-N-2-ethanesulfonic acid], pH 7.4, 150 mM NaCl, 10% glycerol, 1% Triton X-100, 1.5 mM MgCl2, 1 mM EGTA [ethylene glycol tetraacetic acid], 100 mM NaF, 1 mM phenylmethylsulfonyl fluoride, 1 mM NaVO4, 1 μg/ml leupeptin, and 1 μg/ml aprotinin) for 15 minutes on ice. Whole-cell lysates were obtained by centrifugation, and the soluble protein analyzed by Western blotting for Akt and P-Akt levels. Quantification was done using the Li-COR Odyssey imaging system.

CCRF-CEM xenograft = test: Systemic (intravenous) CCRF-CEM xenograft, survival; format: in vivo, mouse; conditions: treatment from 3 days post-injection for 7 days
Description: After 3 days, mice were segregated into two treatment groups that received either CAL-130 or vehicle by oral gavage as described above for 7 days. Mice in both groups were then followed until moribund (and euthanized).
In the former, luciferase expressing CCRF-CEM cells were injected into the flanks of immunodeficient mice and allowed to grow for 1 week before administering vehicle control or inhibitor (10 mg kg^−1 every 8 hours) for a total of 4 days. In the latter, treatment commenced 3 days post-injection of tumor cells for a total of 7 days. […] This translated into an increase in median survival time for treated animals with systemic disease of 35 days versus 23 days for mice that received vehicle control alone (FIG. 19D).

CCRF-CEM cells [2] = test: Immunoblots of signaling downstream of PI3K; format: cell-based, human
Description: as §1
The PI3K/Akt signaling pathway can play a major role in cell cycle progression and growth of tumors by regulating the activation state of the downstream targets such as glycogen synthase kinase-3β (GSK3β) and mTOR (Schmelzle and Hall, 2000; Cohen and Frame, 2001). PI3K/Akt mediated phosphorylation suppresses the function of the former and promotes the activity of the latter. Tumor cell survival, on the other hand, is largely mediated by the ability of this pathway to inactivate proapoptotic effectors such as the BH3-only pro-apoptotic protein BAD and to repress the expression of BIM, both of which participate in the mitochondria-dependent cell death pathway (Strasser et al., 2000; Duronio, 2008). Therefore, the ability of CAL-130 treatment to interfere with such events was examined. […] Downstream targets of this protein kinase were also affected as evidenced by the reduction in phosphorylation of GSK3β and mTOR. […] The latter would also explain in part the synergy between CAL-130 and dexamethasone, as BIM expression is required for glucocorticoid-induced apoptosis (Erlacher et al., 2005; Wang et al., 2003).

CCRF-CEM cells [3] = test: Cell proliferation and apoptosis (cell counting, Annexin V); format: cell-based, human; conditions: CCRF-CEM
Description: Cell proliferation of CCRF-CEM cells or shRNA transfected CCRF-CEM cells, in the presence or absence of appropriate drug, was followed by cell counting of samples in triplicate using a hemocytometer and trypan blue. For apoptosis determinations of untransfected or shRNA transfected CCRF-CEMs, cells were stained with APC-conjugated Annexin-V (BD Biosciences) in Annexin Binding Buffer (Miltyeni Biotec) and analyzed by flow cytometry. For primary T-ALL samples, cell viability was assessed using the BD Cell Viability kit (BD Biosciences) coupled with the use of fluorescent counting beads as previously described (Armstrong et al., 2009). For this, cells were plated with MS5-DL1 stroma cells, and after 72 hours following drug treatment cells were harvested and stained with an APC-conjugated anti-human CD45 followed by a staining with the above kit according to the manufacturer's instructions.

CCRF-CEM xenografts = test: Subcutaneous CCRF-CEM (CEM-luc) xenograft, bioluminescence; format: in vivo, mouse; conditions: 10 mg kg−1 every 8 hours for 4 days
Description: For subcutaneous xenograft experiments, luminescent CCRF-CEM (CEM-luc) cells were generated by lentiviral infection with FUW-luc and selection with neomycin. Luciferase expression was verified with the Dual-Luciferase Reporter Assay kit (Promega Corp., Madison, WI). […] After 1 week, mice were treated by oral gavage with vehicle (0.5% methyl cellulose, 0.1% Tween-80), or CAL-130 (10 mg kg^−1) (Gilead Sciences, Foster City, CA) every 8 hours daily for 4 days and then tumors imaged as follows: mice anesthetized by isoflurane inhalation were injected intraperitoneally with D-luciferin (50 mg kg^−1, Xenogen, Calipers Life Sciences, Hopkinton, MA). Photonic emission was imaged with the In Vivo Imaging System (IVIS, Xenogen). Tumor bioluminescence was quantified by integrating the photonic flux (photons per second) through a region encircling each tumor using the LIVING IMAGES software package (Xenogen).
In the former, luciferase expressing CCRF-CEM cells were injected into the flanks of immunodeficient mice and allowed to grow for 1 week before administering vehicle control or inhibitor (10 mg kg^−1 every 8 hours) for a total of 4 days. In the latter, treatment commenced 3 days post-injection of tumor cells for a total of 7 days. […]

p110δ = p110δ (Homo sapiens, UniProt O00329); test: ex-vivo PI3 kinase assay using recombinant PI3K; format: biochemical; conditions: ATP at Km
p110δ, sequence (O00329 whole entry, species assumed, canonical isoform): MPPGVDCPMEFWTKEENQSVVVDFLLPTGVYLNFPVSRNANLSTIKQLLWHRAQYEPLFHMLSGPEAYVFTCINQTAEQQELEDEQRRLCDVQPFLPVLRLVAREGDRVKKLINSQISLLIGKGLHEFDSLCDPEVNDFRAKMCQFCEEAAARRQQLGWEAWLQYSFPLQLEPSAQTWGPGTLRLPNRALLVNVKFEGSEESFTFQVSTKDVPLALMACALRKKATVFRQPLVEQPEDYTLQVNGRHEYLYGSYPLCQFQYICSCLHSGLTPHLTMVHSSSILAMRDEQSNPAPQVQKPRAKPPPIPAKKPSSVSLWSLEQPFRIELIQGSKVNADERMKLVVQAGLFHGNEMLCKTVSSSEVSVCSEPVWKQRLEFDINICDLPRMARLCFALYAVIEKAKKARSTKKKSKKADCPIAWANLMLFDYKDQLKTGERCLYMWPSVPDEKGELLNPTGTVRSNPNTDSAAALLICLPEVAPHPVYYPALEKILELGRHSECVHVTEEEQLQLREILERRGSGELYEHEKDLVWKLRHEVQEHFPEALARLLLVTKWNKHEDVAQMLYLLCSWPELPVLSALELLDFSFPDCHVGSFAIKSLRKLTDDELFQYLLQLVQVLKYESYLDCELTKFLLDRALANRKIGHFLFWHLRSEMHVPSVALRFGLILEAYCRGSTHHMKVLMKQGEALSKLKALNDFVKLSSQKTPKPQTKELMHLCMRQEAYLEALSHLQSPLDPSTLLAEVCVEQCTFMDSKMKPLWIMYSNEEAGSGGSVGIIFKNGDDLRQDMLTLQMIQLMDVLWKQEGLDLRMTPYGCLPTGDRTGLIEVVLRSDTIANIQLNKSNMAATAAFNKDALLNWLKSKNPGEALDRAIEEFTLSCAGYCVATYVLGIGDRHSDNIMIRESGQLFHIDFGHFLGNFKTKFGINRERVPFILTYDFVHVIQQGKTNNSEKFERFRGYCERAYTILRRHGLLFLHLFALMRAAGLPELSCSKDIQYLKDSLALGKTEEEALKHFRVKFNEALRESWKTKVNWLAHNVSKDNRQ
p110δ, sequence (P27986 whole entry partner, species assumed, canonical isoform): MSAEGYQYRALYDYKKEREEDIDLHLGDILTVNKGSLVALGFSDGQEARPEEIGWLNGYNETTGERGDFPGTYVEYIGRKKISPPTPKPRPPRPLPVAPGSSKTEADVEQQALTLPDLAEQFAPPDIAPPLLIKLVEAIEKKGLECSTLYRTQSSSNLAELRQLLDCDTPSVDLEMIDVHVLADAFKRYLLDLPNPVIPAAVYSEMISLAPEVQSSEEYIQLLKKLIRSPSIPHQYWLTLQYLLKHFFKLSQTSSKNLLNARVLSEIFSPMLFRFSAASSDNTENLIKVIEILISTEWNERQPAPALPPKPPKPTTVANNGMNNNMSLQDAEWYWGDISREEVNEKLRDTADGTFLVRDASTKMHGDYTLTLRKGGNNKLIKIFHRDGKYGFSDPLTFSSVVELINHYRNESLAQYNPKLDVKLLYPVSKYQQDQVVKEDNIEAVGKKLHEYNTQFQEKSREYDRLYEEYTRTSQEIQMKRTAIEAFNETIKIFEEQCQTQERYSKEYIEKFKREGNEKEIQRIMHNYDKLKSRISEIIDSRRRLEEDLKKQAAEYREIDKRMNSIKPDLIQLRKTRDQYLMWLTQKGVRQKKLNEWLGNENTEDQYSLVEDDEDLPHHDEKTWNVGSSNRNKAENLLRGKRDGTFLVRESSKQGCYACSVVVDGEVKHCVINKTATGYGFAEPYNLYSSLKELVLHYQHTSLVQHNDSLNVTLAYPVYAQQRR
Description: (§2) CAL-130 is a derivative of IC87114 (Gilead Sciences, Foster City, CA), the synthesis of which has been previously described (Sadhu et al., 2003 and Sadhu et al., U.S. Pat. Nos. 6,518,277 and 6,667,300, which are incorporated by reference as if recited in full herein). […] values for CAL-130 inhibition of PI3K isoforms were determined in ex-vivo PI3 kinase assays using recombinant PI3K. A 10-point kinase inhibitory profile was determined with ATP at a concentration consistent with the Km for each enzyme (Puri et al., 2004).

p110α = p110α (Homo sapiens, UniProt P42336); test: ex-vivo PI3 kinase assay using recombinant PI3K; format: biochemical; conditions: ATP at Km
p110α, sequence (P42336 whole entry, species assumed): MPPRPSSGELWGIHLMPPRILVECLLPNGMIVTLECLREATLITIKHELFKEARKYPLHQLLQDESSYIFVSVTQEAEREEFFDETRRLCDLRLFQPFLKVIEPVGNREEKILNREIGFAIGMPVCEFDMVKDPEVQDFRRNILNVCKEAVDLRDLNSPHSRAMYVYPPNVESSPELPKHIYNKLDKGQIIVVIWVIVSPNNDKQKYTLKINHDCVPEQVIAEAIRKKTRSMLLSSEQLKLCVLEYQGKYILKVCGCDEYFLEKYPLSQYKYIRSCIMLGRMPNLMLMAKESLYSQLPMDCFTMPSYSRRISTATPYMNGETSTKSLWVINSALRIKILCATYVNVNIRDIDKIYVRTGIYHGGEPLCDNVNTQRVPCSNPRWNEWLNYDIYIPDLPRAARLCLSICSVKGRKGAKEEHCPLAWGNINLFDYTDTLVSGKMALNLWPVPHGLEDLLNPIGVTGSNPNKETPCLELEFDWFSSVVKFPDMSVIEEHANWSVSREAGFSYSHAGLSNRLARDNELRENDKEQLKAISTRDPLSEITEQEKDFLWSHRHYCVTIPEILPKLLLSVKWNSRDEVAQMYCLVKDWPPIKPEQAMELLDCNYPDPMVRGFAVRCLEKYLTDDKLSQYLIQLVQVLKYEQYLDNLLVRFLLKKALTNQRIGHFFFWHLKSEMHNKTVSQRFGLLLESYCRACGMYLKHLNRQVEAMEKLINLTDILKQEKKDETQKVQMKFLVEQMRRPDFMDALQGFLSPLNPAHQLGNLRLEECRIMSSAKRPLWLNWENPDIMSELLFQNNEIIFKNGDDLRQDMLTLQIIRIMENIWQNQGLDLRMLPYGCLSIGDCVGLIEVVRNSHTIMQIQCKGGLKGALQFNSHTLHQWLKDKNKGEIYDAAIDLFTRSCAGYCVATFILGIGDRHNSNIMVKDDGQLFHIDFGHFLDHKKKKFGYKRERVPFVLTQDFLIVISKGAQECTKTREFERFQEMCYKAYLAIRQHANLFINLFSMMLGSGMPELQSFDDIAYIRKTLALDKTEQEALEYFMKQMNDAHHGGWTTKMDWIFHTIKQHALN
p110α, sequence (P27986 whole entry partner, species assumed): as the sequence (P27986 whole entry partner, species assumed, canonical isoform) above
Description: as §2

[4] = within 24 hours, persisted over 4 days

Description for PTEN null T-ALL: Mice deficient for PTEN in the T cell lineage were generated by crossing Lck-cre with floxed Pten (Hennet et al., 1995; Trotman et al., 2003).
Mice received an oral dose (10 mg kg^−1) of the inhibitor every 8 hours for a period of 7 days and were then followed until moribund.
Pten^fl/fl mice were crossed with a strain in which a luciferase cDNA, preceded by a LoxP-stop-LoxP cassette, was introduced into the ubiquitously expressed ROSA26 locus (Safran et al., 2003). Progeny were then crossed with Lck-cre transgenics to delete Pten in T cell progenitors and induce expression of luciferase (Lck/Pten^fl/fl; Gt(ROSA)26Sor^tm1(Luc)Kael/J).

## Cc1ccccc1-n1c(C(C)Nc2nc(N)nc3nc[nH]c23)nc2cccc(C)c2c1=O (centres unmarked) [CAL-130]
[1]
  Akt phosphorylation: reduction
PI3Kα
  PDGF-induced activation of PI3Kα (Akt phosphorylation): limited ability to impair
CCRF-CEM xenograft
  median survival time: 35 days
PTEN null T-ALL; 7 days treatment
  weights of thymi, liver, spleen, and kidneys versus vehicle control: significantly less
PTEN null T-ALL; Lck/Pten fl/fl mice with T-ALL, oral 10 mg kg−1 every 8 hours for 7 days
  median survival: 45 days
PTEN null T-ALL; Lck/Pten fl/fl mice, by day 4
  WBC: dramatic reduction
PTEN null T-ALL; Lck/Pten fl/fl mice, days 4 through 7
  apoptosis (sub-G0 population after PI staining): increase in apoptosis
PTEN null T-ALL; Lck/Pten fl/fl;Gt(ROSA)26Sor luciferase mice, day 4 of treatment
  bioluminescent signals: dramatically lower
PTEN null T-ALL; diseased Lck/Pten fl/fl mice, within hours of treatment (data not shown)
  peripheral blood T-ALL cells: dramatic and sustained reduction
CCRF-CEM cells [2]
  expression of BIM (including L and S isoforms): enhanced expression
  phosphorylation of BAD: reduction
  phosphorylation of GSK3β: reduction
  phosphorylation of mTOR: reduction
CCRF-CEM cells [2]; 2.5 μM, 6 hours
  Akt (Ser473) phosphorylation: complete abrogation
CCRF-CEM cells [3]; dexamethasone in combination with 2.5 μM CAL-130
  apoptotic properties of dexamethasone: significantly enhanced
CCRF-CEM cells [3]; [4]
  apoptosis: promoted apoptosis
  proliferation: prevented proliferation
CCRF-CEM xenografts
  difference in luminescence, treated versus vehicle control: 5 fold
p110δ
  IC50: 0.0013 µM
p110α
  IC50: 0.115 µM
